One data set concerns A375 melanoma cell line. In words: MTS assay of metabolic activity (cell viability), 48 h exposure, A375 cells. Type of data set: cell-based, human. The note with it: for IC60 / IC50: A375, 48 h, MTS, ± SEM; for IC60: concentration decreasing biological activity to 60%. As to the method: (§1) Biological activity upon treatment with EVOO-PEs, DTIC, OCEIN, and OCAL was evaluated using an MTS assay in in vitro experimental models, including the A375 and A375M cancer cell lines and HaCaT immortalized cell line. […] Due to the fast cell growth rate, a longer incubation period or denser initial seeding caused the overgrowth of untreated cells. In comparison, a shorter incubation period or lower initial density caused the effect of the test substances to be more difficult to detect. Therefore, the experiments were performed within a 48-hour timeframe. In addition, to avoid the misinterpretation of the results, we checked whether the vehicle, which was DMSO for the test substances, had any effect on metabolic activity by exposing each cell type to 0.2 and 0.4% DMSO, i.e., to the highest final DMSO concentrations achieved with the highest final concentrations of test substances. […] Accordingly, the effects of the test substances were determined as relative biological activities (in terms of cell viability, i.e., cell survival) compared to the untreated cells (controls). The cells were treated with a series of dilutions made by diluting full strength (100%) EVOO-PE to concentrations of 0.025–0.400 % (v/v) of EVOO-PE in the medium.
(§2) Cells were grown in complete cell culture media, consisting of RPMI 1640, 2 mmol/L glutamine, 10% heat-inactivated foetal bovine serum (FBS), penicillin (100 IU/mL; 1 IU 67.7 µg/mL), and streptomycin (100 µg/mL). Cultures were maintained in a moisturized atmosphere with 5% CO2 at 37 °C and 95% relative humidity. All experiments were performed on cells between passages 4 and 8. The biological activity of the three EVOO-Pes, DTIC, OCEIN, and OCAL, as well as biological activity of the three EVOO-PEs following 6 h pre-incubation with DTIC was determined using a CellTiter 96®AQueous One Solution Cell Proliferation Assay. In short, 100 µL of cell cultures was seeded into 96-well tissue culture plates (A375 and HaCaT at a concentration of 2 × 10^3 cells/well, A375M at 7 × 10^3 cells/well). The next day, the medium was aspirated and media containing different concentrations of compounds were added to each well. All test compounds except DTIC were initially dissolved in DMSO and serially diluted in culture medium to obtain the final concentrations. DTIC was initially dissolved in culture medium, warmed to 37 °C, activated during 1 h exposure to light, and diluted in culture medium. The controls contained the test model cells and culture medium (containing either the complete medium or the DMSO in the highest final concentration, 0.2% and 0.4%) but no test compounds. The cells were incubated for 48 h before biological activity was measured. When investigating the combined effect, we exposed cells to DTIC for 6 h, removed the medium, and exposed the cells to medium containing EVOO-PE extracts for the next 24 h. In addition to the non-treated cells, the controls for experiments with DTIC pre-incubation were cells that had been exposed to DTIC for 6 h and cultured in a complete medium afterwards (without EVOO-PE). After incubation, media were aspirated, and 90 µL of serum-free medium containing MTS was added, according to the manufacturer’s instructions. After 1.5 h of incubation in the dark, the absorbance was measured at a wavelength of 490 nm using a microplate reader, Victor2-1420 Multilabel Counter (PerkinElmer, Yokohama, Japan). A negative control (medium without cells) was used as a blank. All experiments were performed in hexaplicate.
(§3) The GraphPad Prism software version 9.0.0 for Windows (GraphPad Software, San Diego, CA, USA), was used for the determination of inhibitory concentration as well as for statistical analysis. The normality of the data distribution was accessed using Kolmogorov–Smirnov and Shapiro–Wilk tests. The IC60 and IC50 values (concentrations that reduced cell growth to 60% or 50% of the initial value, respectively) were determined using a nonlinear regression curve fit. […]
A general note: Tetrazolium assays rely on reduction of a dye to a coloured formazan, in cell work by metabolically active cells.

The subject of data set [1] is A375M metastatic melanoma cell line. In words: MTS assay of metabolic activity (cell viability), 48 h exposure, A375M cells. Type of data set: cell-based, human. The note with it: for effect on A375M cells: Figure S5b. As to the method: as §1
as §2, with “The controls contained the test model cells and culture medium (containing either the complete medium or the DMSO in the highest final concentration, 0.2% and 0.4%) but no test compounds.” left out, “When investigating the combined effect, we exposed cells to DTIC for 6 h, removed the medium, and exposed the cells to medium containing EVOO-PE extracts for the next 24 h. In addition to the non-treated cells, the controls for experiments with DTIC pre-incubation were cells that had been exposed to DTIC for 6 h and cultured in a complete medium afterwards (without EVOO-PE). After incubation, media were aspirated, and 90 µL of serum-free medium containing MTS was added, according to the manufacturer’s instructions.” left out, “A negative control (medium without cells) was used as a blank. All experiments were performed in hexaplicate.” left out

In a further data set the test system is A375 cells. To be noted: cited from earlier work; for IC50: homemade isolated OCAL purified to 95%.
In data set [2] the test system is HaCaT immortalized keratinocytes. The data set can be described thus: MTS assay of metabolic activity (cell viability), 48 h exposure, HaCaT cells. It counts as cell-based. The note with it: ± SEM, DTIC applied up to 1000 µM, italic values extrapolated; for IC50: Homo sapiens. As to the method: as §1, §2, §3
For the next data set, the system named is 501Mel melanoma cells. The arrangement: method as in earlier work. To be noted: ref 22 (Carpi et al.); read-out: IC50 of OCEIN on 501Mel melanoma cells; cited from earlier work.

“And” between values parts separate entries of the source, which are not always exact repeats. Equal values may be shown once. Read-outs that look alike come from different tables or passages of the source.

As to `C/C=C(/C=O)[C@@H](CC=O)CC(=O)OCCc1ccc(O)cc1` [OCAL, oleocanthal], the IC60 with A375 melanoma cell line was 58.488 µM and 58.488 ± 1.836 µM; in data set [2], 112.827 ± 2.904 µM. The IC50 – broadly, the concentration that gives 50% inhibition – with A375 melanoma cell line was 67.5 ± 1.86 µM; in the data set on A375 melanoma cell line (Homo sapiens, A-375, 48 h), 67 µM; in the data set on A375 cells (ref 24 (Fogli et al.)) it was 13.6 µM; in the data set with A375 cells (ref 25 (Gu et al.)), approximately 20 µM; in data set [2], 130 ± 3.21 µM. For the same molecule, in the data set on A375 melanoma cell line (Homo sapiens, A-375, 60 µM OCAL, cell line not given, read-out: viability compared to control), the viability (in general, a read-out of living cells in per cent, often relative to untreated cells) at 60 µM was approximately 80%. In addition, in data set [1], the “effect on A375M cells” value was “failed to provoke any effect”. In addition, in the data set with A375 cells (60 µM OCAL (highest applied), cell line not given, ref 25 (Gu et al.)), the “viability compared to control” value was ~ 80%.
Regarding `CN(C)/N=N/c1[nH]cnc1C(N)=O` [DTIC, dacarbazine], the IC60 with A375 melanoma cell line is given as 214.358 ± 13.449 µM; in data set [1] (A375M, ± SEM, DTIC applied up to 1000 µM, interpret with caution), 709.780 ± 99.634 µM; in data set [2], 1137 ± 93.752 µM. Also, the IC50 with A375 melanoma cell line (Homo sapiens, A-375, 48 h) was 362 µM; in data set [1] (Homo sapiens, A375M, ± SEM, DTIC applied up to 1000 µM, interpret with caution), 872 ± 62.2 µM; in data set [2], more than 1000 µM.
Turning to `CC=C(C=O)C(CC=O)CC(=O)OCCc1ccc(O)c(O)c1` (centres unmarked) [OCEIN, oleacein], the IC60 in the data set with A375 melanoma cell line was 101.052 µM and 101.052 ± 4.610 µM; in data set [2], 103.061 ± 2.086 µM. Further, the IC50 in the data set with A375 melanoma cell line was 113 ± 4.92 µM; with A375 melanoma cell line (Homo sapiens, A-375, 48 h), 112 µM; in data set [2], 114 ± 2.3 µM; in the data set on 501Mel melanoma cells it was 82 µM. Further, the “effect on A375M cells” value in data set [1] was “failed to provoke any effect”.

The values above are taken from article PMC9146374, “Extra Virgin Olive Oil Secoiridoids Modulate the Metabolic Activity of Dacarbazine Pre-Treated and Treatment-Naive Melanoma Cells” (Molecules, 2022).
